Counter-ions that a name gives are not always drawn.
Key:
[1] = system: isolated, spontaneously beating auricles of guinea pigs; assay: Effect on heart rate in the isolated auricle of the guinea pig; format: cell-based; conditions: Cavia porcellus; 10^-5 g/ml in organ bath, tyrode solution, 30° C., average of 5 auricles; read-out: Change in heart rate in %
Procedure: 2. Effect on heart rate in the isolated auricle of the guinea pig:
The effect on isolated, spontaneously beating auricles of guinea pigs of male and female sex having a body weight between 300 and 400 gm were investigated in an organ bath filled with tyrode solution. The nutritive solution was infused with carbogen (95% of O2 and 5% of CO2) and maintained at 30° C. The contractions were registered isometrically with a Statham-Force-transducer on a Grass-polygraph. The test compound was added to the organ bath so that the final concentration was 10^-^5 g/ml in each case. 5 auricles were used for each solution.
The following table gives the percentage decrease in the heart rate from an average of 5 auricles at a test compound concentration of 10^-^5 g/ml).

[2] = system: heart rate of guinea pigs under urethane anesthesia; assay: Activity on heart frequency of anesthetized guinea pigs; format: in vivo, guinea pig; conditions: ECG
Procedure: 1. Activity on heart frequency of anesthetized guinea pigs:
The heart rate of guinea pigs under urethane anesthesia was registered by an electrocardiogram. The test compound was administered intravenously at increasing dosage increments between 0.5 and 20 mg/kg.

Acute toxicity in mice = conditions: mouse, in vivo, observation time 14 days
Procedure: The acute toxicity of the compounds in question was determined in mice (observation time: 14 days) after oral or intravenous application. The LD50 was calculated from the percentage of animals which died after different doses within the observation time (see J. Pharmacol. exp. Therap. 96, 99 (1949)): […]

SMILES | inhibition at 10 µg/mL [1] [%] | Percentage change in heart rate ([2]; 0.5 mg/kg i.v.) [%] | Percentage change in heart rate ([2]; 1.0 mg/kg i.v.) [%] | Percentage change in heart rate ([2]; 2.0 mg/kg i.v.) [%] | Percentage change in heart rate ([2]; 5.0 mg/kg i.v.) [%] | Percentage change in heart rate ([2]; 10.0 mg/kg i.v.) [%] | Percentage change in heart rate ([2]; 20.0 mg/kg i.v.) [%] | LD50 at 336 h (Acute toxicity in mice; iv) [mg/kg] | LD50 at 336 h (Acute toxicity in mice; po) [mg/kg]
COc1ccc(CCN(C)CCCN2Cc3cc(OC)c(OC)cc3C2=O)cc1OC [A, 5,6-Dimethoxy-2N-(3-[α-(3,4-dimethoxy)-phenylethyl-methylamino]-propyl)-phthalimidine hydrochloride] | 52 | -23.5 | -36.1 | -47.2 | -51.6 | -59.1 | -67.2 | 98 | 1570
COc1ccc(CCN(C)CCCN2Cc3cc(OC)c(OC)cc3S2(=O)=O)cc1OC [B, 5,6-Dimethoxy-2-(3-[α-(3,4-dimethoxy)-phenylethyl-methylamino]-propyl)-1,2-benzisothiazoline-1,1-dioxide hydrochloride] | 60 | -9.8 | -20.0 | -27.4 | -37.6 | -46.9 | -53.9 | 100 | –
COc1cc2c(cc1OC)C(=O)N(CCCN(C)CCc1ccc3c(c1)OCO3)C2 [D, 5,6-Dimethoxy-2N-(3-[α-(3,4-methylenedioxy)-phenylethylmethylamino]-propyl)-phthalimidine hydrochloride] | 51 | – | – | – | – | – | – | – | –
CN(CCCN1Cc2cc3c(cc2C1=O)OCCO3)CCc1ccc2c(c1)OCO2 [E, 5,6-Ethylenedioxy-2N-(3-[α-(3,4-methylenedioxy)-phenylethyl-methylamino]-propyl)-phthalimidine hydrochloride] | 48 | – | – | – | – | – | – | – | –
